The target of the assay is GluA1o-γ8 (GRIA1o-CACNG8 fusion construct) (Homo sapiens (Human), UniProt P42261+Q8WXS5). The experiment in a line: Calcium flux assay (FLIPR), inhibition of TARP γ8 dependent AMPA receptor activity. It is filed as cell-based. The settings on record: GluA1o-γ8 (GRIA1o-CACNG8 fusion) in HEK293 cells, calcium flux after 15 μM glutamate. The text has this: This assay was used to test compounds for their ability to inhibit TARP γ8 dependent AMPA receptor activity. The AMPA receptor is a non-selective cation channel activated by glutamate. Ionotropic glutamate receptors normally desensitize too rapidly to allow detectable calcium influx in a FLIPR assay (Strange et al. (2006). “Functional characterisation of homomeric ionotropic glutamate receptors GluR1-GluR6 in a fluorescence-based high throughput screening assay.” Comb Chem High Throughput Screen 9(2): 147-158). But, this desensitization is incomplete, and a substantial steady-state current remains in the sustained presence of glutamate (Cho et al. (2007). “Two families of TARP isoforms that have distinct effects on the kinetic properties of AMPA receptors and synaptic currents.” Neuron 55(6): 890-904).
An in vitro assay was used to determine the potency of test compounds as inhibitors of the glutamate response of the channel formed by GluA1o-γ8. To ensure a 1:1 stoichiometry of GluA1o and γ8 subunits in the expressed channel, a fusion of the cDNAs for GRIA1o and CACNG8 was used. Following Shi et al (2009) “The stoichiometry of AMPA receptors and TARPs varies by neuronal cell type.” Neuron 62(5): 633-640), the C-terminus of the cDNA for GRIA1o was fused to the N-terminus of the cDNA for γ8. The linker sequence was QQQQQQQQQQEFAT. Channels expressed with this construct appear to have similar properties to channels formed by co-expression of GRIA1o with an excess of CACNG8 (Shi et al. 2009). A clonal cell line in HEK293 cells stably expressing this construct, with a geneticin selection marker, was generated for use in this assay.
Cell expressing the GRIA1o-CACNG8 fusion construct were grown in a monolayer in 96- or 384-well microtiter plates. They were washed with assay buffer (135 mM NaCl, 4 mM KCl, 3 mM CaCl2, 1 mM MgCl2, 5 mM glucose, 10 mM HEPES, pH 7.4, 300 mOs) using a Biotek EL405 plate washer. The cells were then loaded with a calcium-sensitive dye (Calcium-5 or Calcium-6, Molecular Devices) and the test compounds at a range of concentrations. Calcium flux following the addition of 15 μM glutamate was monitored using a Molecular Devices FLIPR Tetra. The fluorescence in each well was normalized to the fluorescence of negative and positive control wells. The negative control wells had no added compounds, and the positive control wells had been incubated with 10 μM CP465022 (a non-subtype-selective AMPA receptor antagonist) (Lazzaro et al. (2002). “Functional characterization of CP-465,022, a selective, noncompetitive AMPA receptor antagonist.” Neuropharmacology 42(2): 143-153). The responses to glutamate as functions of the test compound concentrations were fitted to a four-parameter logistic function. The fitted parameter corresponding to the midpoint was taken to be the potency of inhibition of the compound. The data in Table 4 below illustrates the observed potentcy for the compounds described herein. pIC50 refers to the negative log of the IC50 in molar.

These results are taken from patent publication US11312712B2, “Azabenzimidazoles and their use as AMPA receptor modulators” (Janssen Pharmaceutica NV, priority 2015, dated 2022).

Sequence of GluA1o-γ8 (GRIA1o-CACNG8 fusion construct) (P42261 other isoform, or with tags, fused parts or gaps): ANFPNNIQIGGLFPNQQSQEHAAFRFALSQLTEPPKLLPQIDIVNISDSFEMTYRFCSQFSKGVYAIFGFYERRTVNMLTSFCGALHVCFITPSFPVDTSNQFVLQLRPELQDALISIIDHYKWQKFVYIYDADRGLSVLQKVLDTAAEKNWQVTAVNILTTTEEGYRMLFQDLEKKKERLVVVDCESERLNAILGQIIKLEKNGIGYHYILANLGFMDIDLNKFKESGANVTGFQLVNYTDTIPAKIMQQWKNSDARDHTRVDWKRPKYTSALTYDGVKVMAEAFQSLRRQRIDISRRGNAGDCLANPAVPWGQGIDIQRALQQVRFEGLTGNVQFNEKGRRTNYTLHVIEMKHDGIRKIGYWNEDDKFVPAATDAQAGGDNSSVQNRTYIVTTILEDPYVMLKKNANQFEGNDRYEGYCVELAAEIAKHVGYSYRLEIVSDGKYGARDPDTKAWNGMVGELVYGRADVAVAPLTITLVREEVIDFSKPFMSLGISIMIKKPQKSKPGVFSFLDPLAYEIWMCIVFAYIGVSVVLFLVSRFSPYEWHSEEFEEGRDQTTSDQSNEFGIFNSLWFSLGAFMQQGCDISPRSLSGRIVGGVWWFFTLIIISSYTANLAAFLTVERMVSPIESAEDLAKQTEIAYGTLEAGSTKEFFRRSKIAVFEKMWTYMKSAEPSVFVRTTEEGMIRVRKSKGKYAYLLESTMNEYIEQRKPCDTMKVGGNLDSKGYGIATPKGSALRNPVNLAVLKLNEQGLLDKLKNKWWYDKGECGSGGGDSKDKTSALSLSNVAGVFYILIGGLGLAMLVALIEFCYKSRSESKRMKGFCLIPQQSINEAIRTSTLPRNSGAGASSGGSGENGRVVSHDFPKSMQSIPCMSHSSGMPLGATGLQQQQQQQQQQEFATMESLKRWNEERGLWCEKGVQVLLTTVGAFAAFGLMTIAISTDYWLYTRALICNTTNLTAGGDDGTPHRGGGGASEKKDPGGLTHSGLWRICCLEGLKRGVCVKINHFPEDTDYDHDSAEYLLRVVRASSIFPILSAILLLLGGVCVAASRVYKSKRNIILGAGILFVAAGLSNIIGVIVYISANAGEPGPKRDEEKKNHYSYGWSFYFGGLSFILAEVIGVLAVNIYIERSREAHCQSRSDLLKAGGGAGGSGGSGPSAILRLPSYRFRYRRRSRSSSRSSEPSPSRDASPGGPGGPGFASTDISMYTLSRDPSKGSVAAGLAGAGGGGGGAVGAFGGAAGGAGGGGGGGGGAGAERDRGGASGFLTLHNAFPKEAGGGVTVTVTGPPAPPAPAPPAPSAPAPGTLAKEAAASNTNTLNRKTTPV

`CCc1nc2ccc(C(F)(F)F)nc2n1-c1ccc2[nH]c(=O)sc2c1` [Example 44, 6-[2-Ethyl-5-(trifluoromethyl)imidazo[4,5-b]pyridin-3-yl]-3H-1,3-benzothiazol-2-one]: the IC50 was 0.000398 µM.

Turning to `CC(C)c1nc2ccc(C(F)(F)F)nc2n1-c1ccc2[nH]c(=O)sc2c1` [Example 45, 6-[2-Isopropyl-5-(trifluoromethyl)imidazo[4,5-b]pyridin-3-yl]-3H-1,3-benzothiazol-2-one], the IC50 is 0.000398 µM.

`Cc1nc2ccc(C(F)(F)F)nc2n1-c1ccc2[nH]c(=O)sc2c1` [Example 46, 6-[2-Methyl-5-(trifluoromethyl)imidazo[4,5-b]pyridin-3-yl]-3H-1,3-benzothiazol-2-one]: the IC50 was 0.00631 µM.

`Cc1nc2ccc(C(F)(F)F)nc2n1-c1ccc2c(c1)CC(=O)N2` [Example 47, 5-[2-Methyl-5-(trifluoromethyl)imidazo[4,5-b]pyridin-3-yl]indolin-2-one]: the IC50 is 0.0631 µM.

For the compound `O=C1Cc2cc(-n3c(C4CCCCC4)nc4ccc(C(F)(F)F)nc43)ccc2N1` [Example 48, 5-[2-Cyclohexyl-5-(trifluoromethyl)imidazo[4,5-b]pyridin-3-yl]indolin-2-one], the IC50 is 0.000631 µM.

Take `O=C1Cc2cc(-n3c(C4CCC4)nc4ccc(C(F)(F)F)nc43)ccc2N1` [Example 49, 5-[2-Cyclobutyl-5-(trifluoromethyl)imidazo[4,5-b]pyridin-3-yl]indolin-2-one]: the IC50 is 0.000316 µM.

Turning to `O=C1Cc2cc(-n3c(C4CCOCC4)nc4ccc(C(F)(F)F)nc43)ccc2N1` [Example 50, 5-[2-Tetrahydropyran-4-yl-5-(trifluoromethyl)imidazo[4,5-b]pyridin-3-yl]indolin-2-one], the IC50 is 0.0631 µM.

Take `CC(C)Cc1nc2ccc(C(F)(F)F)nc2n1-c1ccc2c(c1)CC(=O)N2` [Example 51, 5-[2-Isobutyl-5-(trifluoromethyl)imidazo[4,5-b]pyridin-3-yl]indolin-2-one]: the IC50 was 0.01 µM.

On to `O=C1Cc2cc(-n3c(CCC(F)(F)F)nc4ccc(C(F)(F)F)nc43)ccc2N1` [Example 53, 5-[5-(Trifluoromethyl)-2-(3,3,3-trifluoropropyl)imidazo[4,5-b]pyridin-3-yl]indolin-2-one], for which the IC50 was 0.0794 µM.

Consider `O=C1Cc2cc(-n3c(CC4CCCC4)nc4ccc(C(F)(F)F)nc43)ccc2N1` [Example 54, 5-[2-(Cyclopentylmethyl)-5-(trifluoromethyl)imidazo[4,5-b]pyridin-3-yl]indolin-2-one], for which the IC50 is 0.00631 µM.

`O=C1Cc2cc(-n3c(C4CC4)nc4ccc(C(F)(F)F)nc43)ccc2N1` [Example 55, 5-[2-Cyclopropyl-5-(trifluoromethyl)imidazo[4,5-b]pyridin-3-yl]indolin-2-one]: the IC50 was 0.00794 µM.

For `O=C1Cc2cc(-n3c(Cc4cnccn4)nc4ccc(C(F)(F)F)nc43)ccc2N1` [Example 57, 5-[2-(Pyrazin-2-ylmethyl)-5-(trifluoromethyl)imidazo[4,5-b]pyridin-3-yl]indolin-2-one], the IC50 is 15.8 µM.

With `FC(F)(F)c1ccc2nc(C3CCCC3)n(-c3ccc4[nH]ccc4c3)c2n1` [Example 58, 2-Cyclopentyl-3-(1H-indol-5-yl)-5-(trifluoromethyl)imidazo[4,5-b]pyridine], the IC50 was 0.0126 µM.

On to `CC(C)(C)c1nc2ccc(C(F)(F)F)nc2n1-c1ccc2[nH]ccc2c1` [Example 59, 2-tert-Butyl-3-(1H-indol-5-yl)-5-(trifluoromethyl)imidazo[4,5-b]pyridine], for which the IC50 is 0.251 µM.

As for `O=C1Cc2cc(-n3c(C4CCCC4)nc4ccc(C(F)(F)F)nc43)ccc2N1` [Example 60, 5-[2-Cyclopentyl-5-(trifluoromethyl)imidazo[4,5-b]pyridin-3-yl]indolin-2-one], the IC50 is 0.002 µM.

As for `CC(C)(C)c1nc2ccc(C(F)(F)F)nc2n1-c1ccc2c(c1)CC(=O)N2` [Example 61, 5-[2-tert-Butyl-5-(trifluoromethyl)imidazo[4,5-b]pyridin-3-yl]indolin-2-one], the IC50 is 0.0126 µM.

As for `Fc1ccc(-c2nc3c(N4CCOCC4)ccnc3n2-c2ccc3[nH]ncc3c2)cc1` [Example 62, 4-[2-(4-Fluorophenyl)-3-(1H-indazol-5-yl)imidazo[4,5-b]pyridin-7-yl]morpholine], the IC50 is 0.00631 µM.

As to `O=C1Cc2cc(-n3c(-c4ccc(F)cc4)nc4c(N5CCOCC5)ccnc43)ccc2N1` [Example 63, 5-[2-(4-Fluorophenyl)-7-morpholino-imidazo[4,5-b]pyridin-3-yl]indolin-2-one], the IC50 is 0.00316 µM.

Consider `O=c1[nH]c2ccc(-n3c(-c4ccccc4)nc4ccc(N5CCCCC5)nc43)cc2s1` [Example 64, 6-[2-Phenyl-5-(1-piperidyl)imidazo[4,5-b]pyridin-3-yl]-3H-1,3-benzothiazol-2-one], for which the IC50 is 0.00501 µM.

Consider `O=c1[nH]c2ccc(-n3c(-c4ccccc4)nc4ccc(N5CCOCC5)nc43)cc2s1` [Example 65, 6-(5-Morpholino-2-phenyl-imidazo[4,5-b]pyridin-3-yl)-3H-1,3-benzothiazol-2-one], for which the IC50 is 0.316 µM.

As to `CN(C)c1ccc2nc(-c3ccccc3)n(-c3ccc4[nH]c(=O)sc4c3)c2n1` [Example 66, 6-[5-(Dimethylamino)-2-phenyl-imidazo[4,5-b]pyridin-3-yl]-3H-1,3-benzothiazol-2-one], the IC50 is 0.0126 µM.

Regarding `O=c1[nH]c2ccc(-n3c(-c4ccccc4)nc4ccc(C(F)F)nc43)cc2s1` [Example 67, 6-(5-(Difluoromethyl)-2-phenyl-3H-imidazo[4,5-b]pyridin-3-yl)benzo[d]thiazol-2(3H)-one], the IC50 was 0.0001 µM.

As for `O=c1[nH]c2ccc(-n3c(-c4ccc(C(F)F)cc4)nc4cccnc43)cc2s1` [Example 68, 6-[2-[4-(Difluoromethyl)phenyl]imidazo[4,5-b]pyridin-3-yl]-3H-1,3-benzothiazol-2-one], the IC50 was 0.0251 µM.

As for `O=c1[nH]c2ccc(-n3c(-c4ccccc4)nc4c(C(F)F)ccnc43)cc2s1` [Example 69, 6-[7-(Difluoromethyl)-2-phenyl-imidazo[4,5-b]pyridin-3-yl]-3H-1,3-benzothiazol-2-one], the IC50 was 0.00126 µM.

For `CC(C)c1ccnc2c1nc(-c1ccccc1)n2-c1ccc2[nH]c(=O)sc2c1` [Example 70, 6-(7-Isopropyl-2-phenyl-imidazo[4,5-b]pyridin-3-yl)-3H-1,3-benzothiazol-2-one], the IC50 is 0.000631 µM.

Take `O=c1[nH]c2ccc(-n3c(-c4ccc(F)cc4)nc4ccc(CO)nc43)cc2s1` [Example 71, 6-(2-(4-Fluorophenyl)-5-(hydroxymethyl)-3H-imidazo[4,5-b]pyridin-3-yl)benzo[d]thiazol-2(3H)-one]: the IC50 is 0.0398 µM.

Take `Cc1cc(O)c2nc(-c3ccc(F)cc3)n(-c3ccc4[nH]c(=O)sc4c3)c2n1` [Example 72, 6-(2-(4-Fluorophenyl)-7-hydroxy-5-methyl-3H-imidazo[4,5-b]pyridin-3-yl)benzo[d]thiazol-2(3H)-one]: the IC50 is 0.0251 µM.

As to `O=C1Cc2cc(-n3c(CCCO)nc4ccc(C(F)(F)F)nc43)ccc2N1` [Example 73, 5-(2-(3-Hydroxypropyl)-5-(trifluoromethyl)-3H-imidazo[4,5-b]pyridin-3-yl)indolin-2-one], the IC50 is 1.26 µM.

In the case of `Cc1ccc2nc(C3CCC3)n(-c3ccc4c(c3)CC(=O)N4)c2n1` [Example 74, 5-(2-Cyclobutyl-5-methyl-imidazo[4,5-b]pyridin-3-yl)indolin-2-one], the IC50 was 0.0158 µM.

For the compound `CCc1nc2ccc(C)nc2n1-c1ccc2c(c1)CC(=O)N2` [Example 75, 5-(2-Ethyl-5-methyl-imidazo[4,5-b]pyridin-3-yl)indolin-2-one], the IC50 was 0.251 µM.

As to `CC1(c2nc3ccc(C(F)(F)F)nc3n2-c2ccc3c(c2)CC(=O)N3)COC1` [Example 76, 5-[2-(3-Methyloxetan-3-yl)-5-(trifluoromethyl)imidazo[4,5-b]pyridin-3-yl]indolin-2-one], the IC50 is 0.501 µM.
